Laboratory results reported in patent US20200339625A1, “NOVEL RADIOMETAL-BINDING COMPOUNDS FOR DIAGNOSIS OR TREATMENT OF PROSTATE SPECIFIC MEMBRANE ANTIGEN-EXPRESSING CANCER” (PROVINCIAL HEALTH SERVICES AUTHORITY, priority 2017, published 2020).

Columns and labels:
[1] = system: mice bearing LNCaP tumor xenografts; experiment: PET/CT imaging of 68Ga-labeled compounds; assay type: in vivo; conditions: for change of tumor uptake from 1 h to 3 h post-injection: PET/CT images; for blood retention (qualitative): PET/CT images at 1 h and 3 h post-injection, comparison within the figure
Experimental: 2.17 PET/CT Imaging and Biodistribution
Imaging and biodistribution experiments were performed using NODSCID 1L2RyKO male mice. Mice were anesthetized by inhalation with 2% isoflurane in oxygen, and implanted subcutaneously with 1×10^7 LNCaP cells behind left shoulder. Mice were imaged or used in biodistribution studies when the tumor grew up to reach 5-8 mm in diameter during 5-6 weeks.
PET imaging experiments were conducted using Siemens Inveon micro PET/CT scanner. Each tumor bearing mouse was injected 6-8 MBq of 68Ga-labeled tracer through the tail vein under anesthesia (2% isoflurane in oxygen). The mice were allowed to recover and roam freely in their cage. After 50 min, the mice were sedated again with 2% isoflurane in oxygen inhalation and positioned in the scanner. A 10-min CT scan was conducted first for localization and attenuation correction after segmentation for reconstructing the PET images. Then, a 10-min static PET imaging was performed to determined uptake in tumor and other organs. The mice were kept warm by a heating pad during acquisition. For imaging studies acquired at 3 h post-injection (p.i.), the mice were placed in the micro PET/CT scanner at 170 min p.i. Then, the CT acquisitions were conducted as described above, a 15-min static PET imaging was performed to determined uptake in tumor and other organs.

[2] = system: mice bearing PSMA-expressing LNCAP cancer xenografts; experiment: Biodistribution of 68Ga-labeled compounds; assay type: in vivo
Method in brief: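 NOD-SCID IL2RγKO male mice carried subcutaneous LNCaP xenografts grown to 5-8 mm over 5-6 weeks. Organs and blood were collected at 1 or 3 h after injection of the radiotracer and gamma-counted. Uptake was normalized to injected dose via a standard curve and expressed as %ID/g.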

`O=C([O-])CN1CCN(CC(=O)[O-])CCN(CC(=O)NCCCC[C@H](NC(=O)CNC(=O)CCCc2ccc(Br)cc2)C(=O)NC[C@H]2CC[C@H](C(=O)N[C@@H](Cc3ccc4ccccc4c3)C(=O)NCCCC[C@H](NC(=O)N[C@@H](CCC(=O)O)C(=O)O)C(=O)O)CC2)CCN(CC(=O)[O-])CC1.[68Ga+3]` [^68Ga-HTK03058] was tested, and the “change of tumor uptake from 1 h to 3 h post-injection” value [1] was “uptake in tumors increases over time”, the “blood retention (qualitative)” value [1] was “some extent of blood retention” and the Adrenal glands uptake ([2]; 1 h post-injection) was 4.20 ± 1.21 % ID/g. The Blood uptake ([2]; 1 h post-injection) was 26.7 ± 3.02 % ID/g, the Bone uptake ([2]; 1 h post-injection) was 1.04 ± 0.26 % ID/g and the Brain uptake ([2]; 1 h post-injection) was 0.36 ± 0.06 % ID/g. The Fat uptake ([2]; 1 h post-injection) was 2.13 ± 0.57 % ID/g, the Heart uptake ([2]; 1 h post-injection) was 6.09 ± 0.97 % ID/g and the Intestine uptake ([2]; 1 h post-injection) was 1.64 ± 0.27 % ID/g. It also gave a Kidneys uptake ([2]; 1 h post-injection) of 14.7 ± 2.13 % ID/g, a Lacrimal uptake ([2]; 1 h post-injection) of 0.69 ± 0.26 % ID/g and a Liver uptake ([2]; 1 h post-injection) of 3.87 ± 1.00 % ID/g. For the same compound, the Lungs uptake ([2]; 1 h post-injection) was 10.2 ± 2.20 % ID/g, the Muscle uptake ([2]; 1 h post-injection) was 1.37 ± 0.17 % ID/g and the Pancreas uptake ([2]; 1 h post-injection) was 2.00 ± 0.17 % ID/g. For the same compound, the Salivary uptake ([2]; 1 h post-injection) was 3.90 ± 0.70 % ID/g, the Seminal uptake ([2]; 1 h post-injection) was 1.31 ± 0.38 % ID/g and the Spleen uptake ([2]; 1 h post-injection) was 3.13 ± 1.05 % ID/g. For the same compound, the Stomach uptake ([2]; 1 h post-injection) was 0.58 ± 0.20 % ID/g, the Tail uptake ([2]; 1 h post-injection) was 8.87 ± 4.26 % ID/g and the Testes uptake ([2]; 1 h post-injection) was 2.74 ± 0.38 % ID/g. For the same compound, the Thyroid uptake ([2]; 1 h post-injection) was 4.95 ± 0.79 % ID/g, the Tumor uptake ([2]; 1 h post-injection) was 11.2 ± 3.33 % ID/g and the “Tumor:Blood ratio” value ([2]; 1 h post-injection) was 0.42 ± 0.11. The “Tumor:Muscle ratio” value ([2]; 1 h post-injection) was 8.04 ± 1.69, the “Tumor:kidney ratio” value ([2]; 1 h post-injection) was 0.75 ± 0.17 and the Urine uptake ([2]; 1 h post-injection) was 3.97 ± 2.56 % ID/g. It also gave an Adrenal glands uptake ([2]; 3 h post-injection) of 4.46 ± 1.42 % ID/g, a Blood uptake ([2]; 3 h post-injection) of 21.2 ± 2.21 % ID/g and a Bone uptake ([2]; 3 h post-injection) of 1.54 ± 0.36 % ID/g. The Brain uptake ([2]; 3 h post-injection) was 0.30 ± 0.06 % ID/g, the Fat uptake ([2]; 3 h post-injection) was 2.47 ± 1.61 % ID/g and the Heart uptake ([2]; 3 h post-injection) was 4.85 ± 0.67 % ID/g. For the same compound, the Intestine uptake ([2]; 3 h post-injection) was 1.63 ± 0.18 % ID/g, the Kidneys uptake ([2]; 3 h post-injection) was 17.5 ± 3.83 % ID/g and the Lacrimal uptake ([2]; 3 h post-injection) was 1.44 ± 0.37 % ID/g. It also gave a Liver uptake ([2]; 3 h post-injection) of 2.80 ± 0.46 % ID/g, a Lungs uptake ([2]; 3 h post-injection) of 8.21 ± 1.21 % ID/g and a Muscle uptake ([2]; 3 h post-injection) of 1.33 ± 0.24 % ID/g. The Pancreas uptake ([2]; 3 h post-injection) was 1.96 ± 0.20 % ID/g, the Salivary uptake ([2]; 3 h post-injection) was 3.45 ± 0.40 % ID/g and the Seminal uptake ([2]; 3 h post-injection) was 1.15 ± 0.16 % ID/g. For the same compound, the Spleen uptake ([2]; 3 h post-injection) was 2.11 ± 0.44 % ID/g, the Stomach uptake ([2]; 3 h post-injection) was 0.79 ± 0.23 % ID/g and the Tail uptake ([2]; 3 h post-injection) was 6.86 ± 2.42 % ID/g. The Testes uptake ([2]; 3 h post-injection) was 3.02 ± 0.80 % ID/g, the Thyroid uptake ([2]; 3 h post-injection) was 3.72 ± 0.33 % ID/g and the Tumor uptake ([2]; 3 h post-injection) was 14.2 ± 1.99 % ID/g. The “Tumor:Blood ratio” value ([2]; 3 h post-injection) was 0.67 ± 0.07, the “Tumor:Muscle ratio” value ([2]; 3 h post-injection) was 10.8 ± 1.56 and the “Tumor:kidney ratio” value ([2]; 3 h post-injection) was 0.83 ± 0.11. The Urine uptake ([2]; 3 h post-injection) was 6.15 ± 3.78 % ID/g.

`O=C([O-])CN1CCN(CC(=O)[O-])CCN(CC(=O)NCCCC[C@H](NC(=O)CNC(=O)CCCc2ccc([N+](=O)[O-])cc2)C(=O)NC[C@H]2CC[C@H](C(=O)N[C@@H](Cc3ccc4ccccc4c3)C(=O)NCCCC[C@H](NC(=O)N[C@@H](CCC(=O)O)C(=O)O)C(=O)O)CC2)CCN(CC(=O)[O-])CC1.[68Ga+3]` [^68Ga-HTK03089] was tested, and the “change of tumor uptake from 1 h to 3 h post-injection” value [1] was “increases over time”, the “blood retention (qualitative)” value [1] was “significantly higher blood retention” and the Adrenal glands uptake ([2]; 1 h post-injection) was 4.57 ± 1.06 % ID/g. The Blood uptake ([2]; 1 h post-injection) was 6.69 ± 0.27 % ID/g, the Bone uptake ([2]; 1 h post-injection) was 0.41 ± 0.08 % ID/g and the Brain uptake ([2]; 1 h post-injection) was 0.09 ± 0.01 % ID/g. The Fat uptake ([2]; 1 h post-injection) was 2.14 ± 0.29 % ID/g, the Heart uptake ([2]; 1 h post-injection) was 1.73 ± 0.14 % ID/g and the Intestine uptake ([2]; 1 h post-injection) was 0.76 ± 0.05 % ID/g. For the same compound, the Kidneys uptake ([2]; 1 h post-injection) was 91.1 ± 7.42 % ID/g, the Lacrimal uptake ([2]; 1 h post-injection) was 0.05 ± 0.03 % ID/g and the Liver uptake ([2]; 1 h post-injection) was 1.33 ± 0.27 % ID/g. For the same compound, the Lungs uptake ([2]; 1 h post-injection) was 4.68 ± 0.35 % ID/g, the Muscle uptake ([2]; 1 h post-injection) was 0.79 ± 0.06 % ID/g and the Pancreas uptake ([2]; 1 h post-injection) was 1.00 ± 0.07 % ID/g. For the same compound, the Salivary uptake ([2]; 1 h post-injection) was 3.95 ± 0.32 % ID/g, the Seminal uptake ([2]; 1 h post-injection) was 0.66 ± 0.24 % ID/g and the Spleen uptake ([2]; 1 h post-injection) was 8.56 ± 3.07 % ID/g. It also gave a Stomach uptake ([2]; 1 h post-injection) of 0.34 ± 0.07 % ID/g, a Tail uptake ([2]; 1 h post-injection) of 2.54 ± 0.33 % ID/g and a Testes uptake ([2]; 1 h post-injection) of 1.35 ± 0.14 % ID/g. For the same compound, the Thyroid uptake ([2]; 1 h post-injection) was 2.32 ± 0.10 % ID/g, the Tumor uptake ([2]; 1 h post-injection) was 21.7 ± 2.48 % ID/g and the “Tumor:Blood ratio” value ([2]; 1 h post-injection) was 3.25 ± 0.43. For the same compound, the “Tumor:Muscle ratio” value ([2]; 1 h post-injection) was 27.4 ± 4.01, the Urine uptake ([2]; 1 h post-injection) was 47.9 ± 46.6 % ID/g and the Adrenal glands uptake ([2]; 3 h post-injection) was 2.76 ± 0.44 % ID/g. The Blood uptake ([2]; 3 h post-injection) was 2.52 ± 0.69 % ID/g, the Bone uptake ([2]; 3 h post-injection) was 0.15 ± 0.05 % ID/g and the Brain uptake ([2]; 3 h post-injection) was 0.04 ± 0.02 % ID/g. The Fat uptake ([2]; 3 h post-injection) was 1.28 ± 0.25 % ID/g, the Heart uptake ([2]; 3 h post-injection) was 0.68 ± 0.16 % ID/g and the Intestine uptake ([2]; 3 h post-injection) was 0.45 ± 0.10 % ID/g. It also gave a Kidneys uptake ([2]; 3 h post-injection) of 96.4 ± 21.9 % ID/g, a Lacrimal uptake ([2]; 3 h post-injection) of 0.00 ± 0.00 % ID/g and a Liver uptake ([2]; 3 h post-injection) of 0.73 ± 0.41 % ID/g. It also gave a Lungs uptake ([2]; 3 h post-injection) of 2.14 ± 0.42 % ID/g, a Muscle uptake ([2]; 3 h post-injection) of 0.29 ± 0.04 % ID/g and a Pancreas uptake ([2]; 3 h post-injection) of 0.47 ± 0.07 % ID/g. It also gave a Salivary uptake ([2]; 3 h post-injection) of 1.45 ± 0.33 % ID/g, a Seminal uptake ([2]; 3 h post-injection) of 0.24 ± 0.05 % ID/g and a Spleen uptake ([2]; 3 h post-injection) of 2.56 ± 0.89 % ID/g. For the same compound, the Stomach uptake ([2]; 3 h post-injection) was 0.19 ± 0.04 % ID/g, the Tail uptake ([2]; 3 h post-injection) was 1.01 ± 0.23 % ID/g and the Testes uptake ([2]; 3 h post-injection) was 0.73 ± 0.16 % ID/g. The Thyroid uptake ([2]; 3 h post-injection) was 0.98 ± 0.25 % ID/g, the Tumor uptake ([2]; 3 h post-injection) was 31.2 ± 2.11 % ID/g and the “Tumor:Blood ratio” value ([2]; 3 h post-injection) was 13.1 ± 3.76. The “Tumor:Muscle ratio” value ([2]; 3 h post-injection) was 108 ± 13.6 and the Urine uptake ([2]; 3 h post-injection) was 88.5 ± 45.6 % ID/g.
